ChEMBL document CHEMBL5543059, “Discovery of anti-inflammatory natural flavonoids: Diverse scaffolds and promising leads for drug discovery” (Eur J Med Chem, 2023)

System: RAW264.7
Experiment: Anti-neuroinflammatory activity in mouse RAW264.7 cells assessed as inhibition of LPS-induced NO production pre-incubated for 1 hr followed by LPS stimulation and measured after 24 hrs by Griess reagent based assay
Assay type: functional, cell-based
Details: not given

Row | IC50 [µM] | SMILES
1 | 0.89 | COc1ccc(-c2c(OC)c3c(OC)c4cc(C(C)(C)O)oc4cc3oc2=O)cc1
2 | 0.89 | COc1ccc(-c2c(O)c3c(OC)c4c(OC)c(C(C)C)oc4c(OC)c3oc2=O)cc1OC

System: Mus musculus
Experiment: Antiinflammatory activity against TPA-induced CD-1 mouse ear edema model assessed as reduction in ear edema at 0.25 mg/kg relative to control
Assay type: functional
Design: scale not given: the % may be the effect or the level left
Details: not given

Row | SMILES | Activity [%]
3 | O=C1C[C@@H](c2ccccc2)Oc2cc(O)cc(O)c21 [PINOCEMBRIN] | 67.4
4 | COc1cc(O)c2c(c1)O[C@H](c1ccc(O)cc1)CC2=O [SAKURANETIN] | 45.8

System: B16-F10
Experiment: Anti-inflammatory activity in LPS-stimulated mouse B16-F10 cells assessed as reduction in TNFalpha production measured for 12 hrs by ELISA method
Assay type: functional, cell-based
Details: B16-F10, 12 h

Row | IC50 [µM] | SMILES
5 | 1.3 | COc1ccc2oc(-c3ccc(OC)c(OC)c3)cc(=O)c2c1
6 | 5.6 | COc1c(OC)c(O)c2c(=O)cc(-c3ccc(O)c(O)c3)oc2c1OC [SIDERITIFLAVONE]
7 | 3.8 | COc1c(OC)c(O)c2c(=O)cc(-c3ccc(O)cc3)oc2c1OC [XANTHOMICROL]

System: RAW264.7
Experiment: Anti-inflammatory activity in mouse RAW264.7 cells assessed as inhibition of LPS-induced nitric oxide production measured after 18 hrs by Griess assay
Assay type: functional, cell-based
Details: RAW264.7, 18 h

Row | IC50 | SMILES
8 | 9.73 µM | Cc1c(O)c2c(c(C(=O)C(C)C)c1O)OC(c1ccccc1)CC2=O (stereo not given)
9 | 20 µM | Cc1c(O)c(C)c2c(c1O)C(=O)C[C@@H](c1ccc(O)c(O)c1)O2
10 | 6.1 µg/mL | O=C1CC(c2ccc(O)cc2O)Oc2cc(O)cc(O)c21 (stereo not given) [STEPPOGENIN]

System: Mus musculus
Experiment: Antiinflammatory activity against TPA-induced CD-1 mouse ear edema model assessed as reduction in ear edema at 1 uM relative to control
Assay type: functional
Design: scale not given: the % may be the effect or the level left
Details: not given

Row | SMILES | Activity [%]
11 | O=C1c2c(O)cc(O)cc2O[C@H](c2ccc(O)c(O)c2)[C@H]1O [(+)-TAXIFOLIN] | 12
12 | O=C1c2c(O)cc(O)cc2O[C@H](c2ccccc2)[C@H]1O [PINOBAKSIN] | 12.28

System: BV-2
Experiment: Anti-inflammatory activity in mouse BV-2 cells assessed as reduction in LPS-induced NO production pre-treated with compounds for 2 hrs followed by LPS-stimulation measured for 22 hrs by Griess reagent based analysis
Assay type: functional, cell-based
Details: not given

Row | IC50 [µM] | SMILES
13 | 5.9 | CC(C)=CCc1c(O)ccc(C(=O)/C=C/c2cc3c(cc2O)OCO3)c1O
14 | 10.9 | COc1c(/C=C/C(=O)c2ccccc2)c(O)cc2occc12
15 | 2.26 | CC(C)=CCc1cc(C(=O)/C=C/c2ccc(O)cc2O)c(O)cc1O
16 | 29.2 | COc1c([C@@H](CC(=O)c2ccccc2)OC)c(O)cc2occc12

System: THP-1
Experiment: Anti-inflammatory activity in LPS-stimulated human THP-1 cells assessed as reduction of TNFalpha measured for 12 hrs by ELISA method
Assay type: functional, cell-based
Details: THP-1, 12 h

Row | IC50 [µM] | SMILES
17 | 2.4 | COc1ccc2oc(-c3ccc(OC)c(OC)c3)cc(=O)c2c1
18 | 12.4 | COc1c(OC)c(O)c2c(=O)cc(-c3ccc(O)c(O)c3)oc2c1OC [SIDERITIFLAVONE]
19 | 8.1 | COc1c(OC)c(O)c2c(=O)cc(-c3ccc(O)cc3)oc2c1OC [XANTHOMICROL]

System: RAW264.7
Experiment: Anti-inflammatory activity in LPS-stimulated mouse RAW264.7 cells assessed as inhibition of NO production incubated for 24 hrs by Griess reagent based assay
Assay type: functional, cell-based
Details: RAW264.7, 24 h

Row | IC50 [µM] | SMILES
20 | 5.64 | COc1cc(O)c2c(=O)cc(-c3ccc(O)cc3)oc2c1 [GENKWANIN]

System: Neutrophil
Experiment: Inhibition of fMLF/CB-induced human Neutrophil activation assessed as reduction in superoxide anion generation pre-incubated for 2 mins prior to CB induction for 3 mins followed by fMLF addition by spectrophotometric analysis
Assay type: functional, cell-based
Details: not given

Row | IC50 [µM] | SMILES
21 | ≤ 12.5 | COc1cc(O)c2c(=O)cc(-c3ccc(OC)c(OC)c3)oc2c1
22 | ≤ 12.5 | COc1cc(O)c2c(=O)cc(-c3ccc(OC)c(OC/C=C(\C)CCC=C(C)C)c3)oc2c1
23 | ≤ 12.5 | COc1cc(O)c2c(=O)cc(-c3cc(OC)c(OC/C=C(\C)CCC=C(C)C)c(OC)c3)oc2c1

System: Peritoneal macrophage
Experiment: Antiinflammatory activity in mouse peritoneal macrophages assessed as fold reduction in LPS-induced TNFalpha level at 20 uM incubated for 4 hrs by ELISA method
Assay type: functional
Details: not given

Row | SMILES | fold change (FC)
24 | O=C(O)Cc1ccccc1Nc1c(Cl)cccc1Cl [DICLOFENAC] | 1.8

System: RAW264.7
Experiment: Antiinflammatory activity in mouse RAW264.7 cells assessed as decrease in LPS-induced IL-6 secretion after 24 hrs by ELISA method
Assay type: functional, cell-based
Details: RAW264.7, 24 h

Row | IC50 [µM] | SMILES
25 | 21.8 | COc1ccc2c(c1)O[C@H](c1ccc(O)cc1O)CC2
26 | 12.5 | COc1ccc([C@@H]2CCc3cc(OC)c(O)cc3O2)cc1O
27 | 18 | COc1cc2c(c(C)c1OC)O[C@H](c1cc(O)c(OC)c(O)c1)CC2

System: BV-2
Experiment: Antiinflammatory activity against mouse BV-2 cells assessed as reduction in LPS induced NO production measured for 24 hrs by Griess reagent based analysis
Assay type: functional, cell-based
Details: BV-2, 24 h

Row | IC50 [µM] | SMILES
28 | 29.1 | Oc1cc(O)c2c(c1)O[C@@H](c1ccc(O)c(O)c1)[C@@H](O)C2 [(+)-EPICATECHIN]
29 | 26.1 | Oc1cc(O)c2c(c1)O[C@H](c1ccc(O)c(O)c1)[C@@H](O)C2 [CIANIDANOL]
30 | 14.8 | CNC(=N)NCCC[C@H](N)C(=O)O [TILARGININE]

Row | SMILES | IC50 [µM]
31 | Oc1cc(O)c2c(c1)O[C@H](c1cc(O)c(O)c(O)c1)[C@@H](O)C2 [GALLOCATECHIN] | 30.3

System: not listed separately
Experiment: Anti-inflammatory activity in carrageenan-induced human PBMC cells assessed as inhibition of IL-beta leakage at 10 uM measured for 24 hrs relative to control
Assay type: functional
Design: scale not given: the % may be the effect or the level left
Details: not given

Row | SMILES | Activity [%]
32 | COc1ccc(-c2cc(=O)c3c(O)c(OC)c(OC)cc3o2)cc1OC | 16.8
33 | COc1ccc(-c2cc(=O)c3c(O)c(OC)c(OC)c(O)c3o2)cc1OC | 34.4
34 | COc1ccc(-c2cc(=O)c3c(O)c(OC)c(OC)c(OC)c3o2)cc1 [GARDENIN B] | 33.8

System: Macrophage
Experiment: Anti-inflammatory activity in mouse macrophages extracted from abdominal activity assessed as inhibition of LPS-induced nitric oxide production
Assay type: functional, cell-based
Details: not given

Row | IC50 [µM] | SMILES
35 | 2.46 | COc1cc2occ(-c3ccc(O)cc3)c(=O)c2c(OC)c1CC=C(C)C
36 | 2.06 | COc1ccc(-c2coc3cc(OC)c(CC=C(C)C)c(OC)c3c2=O)cc1
37 | 6.72 | COc1cc(-c2coc3cc(O)c(CC=C(C)C)c(O)c3c2=O)c(O)cc1O
38 | 4.68 | COc1ccc(-c2coc3cc(O)c(CC=C(C)C)c(O)c3c2=O)c(O)c1
39 | 60 | COc1c(O)cc2oc(-c3ccc(O)c(O)c3)cc(=O)c2c1O [EUPAFOLIN]
40 | 5.36 | COc1cc(-c2coc3cc(O)c(CC=C(C)C)c(O)c3c2=O)c(OC)cc1O [VIRIDIFLORIN]
